Patent US5008416A, “Organogermanium compound, process for the preparation of same as well as use thereof” (Sanwa Kagaku Kenkyusho Co., Ltd., priority 1989, dated 1991)
Where two headings read alike, the source gives them in different places.

Experiments:
normal mice = assay: Influence on delayed type hypersensitivity in normal mice (Pharmacological Experiment 4); assay type: in vivo, mouse (ICR male); conditions: for Food pad swelling: 24 hours, mean ± standard error, n = 10
Experimental: Influence of the organogermanium compound on the DTH response of normal mice is investigated.
Normal ICR male mice (age of 8 weeks) were immunized with 10^6 cells of SRBC by intravenous route. On 4 days after immunization, the organogermanium compound (Example 4) dissolved in 4% bovine serum albumin was orally administered at the dose of 0.1, 1.0 and 10.0 mg/kg. Just after the treatment with the compound, mice were challenged to intracutaneus injection of 2×10^8 cells of SRBC to hind food pad.
After 24 hours from the injection, the swelling of the foot pad was observed by a stereoscopic microscope.

[1] = test system: Vaccinia virus (DI strain); assay type: in vivo, mouse (ddy male); conditions: for Inhibition (pocks) / Number of pocks: 7th day; for Number of pocks: mean ± standard error, n = 10, (***) p < 0.001 vs Control
tumor bearing mice = assay: Influence on delayed type hypersensitivity in tumor bearing mice (Pharmacological Experiment 3); assay type: in vivo, mouse (ICR male); conditions: for Foot pad swelling: 24 hours, mean ± standard error, n = 10
Experimental: To investigate the effect of the organogermanium compound on the cellular immunity, we employed the delayed type hypersensitivity (DTH) of mice. Tumor bearing mice were used as experimental animals with reduced immunity and effect of the compound on the reduced DTH reaction was assayed.
Sarcoma 180 cells (10^6 cells) were intraperitoneally implanted to ICR male mice (age of 8 weeks) and after 3 hours from the implantation, 10^6 cells of SRBC were injected by intravenous route. Four days later, 2×10^8 cells of SRBC were intracutaneus injection to hind foot pad. After 24 hours from the injection, the swelling of the foot pad was observed by stereoscopic microscope.
To the mice in each test group, the organogermanium compound (Example 4) dissolved in 4% bovine serum albumin was orally administered at the time 4 days before the immunization at the dose of 0.1, 1.0 and 10.0 mg/kg.

NZB/WF1 mice = assay: Influence on antibody production in NZB/WF1 mice (Pharmacological Experiment 2); assay type: in vivo, mouse (NZB/WF1 female); conditions: for Number of PFC: 3 times, mean ± standard error, n = 5, (*) significant vs Control
Experimental: Influence of the organogermanium compound on antibody production is checked with use of NZB/WF1 mice who generate an autoimmune disease due to polyclonal activation of B cells, caused by functional reduction of suppresser T cell activities.
NZB/WF1 female mice (age of 11 weeks) were classified into Control group and Test groups (5 mice for each group), and 2×10^8 cells of SRBC were injected in a tail vein of each mouse for sensitization.
To the mice in each Test group, the organogermanium compound (Example 4) dissolved in 4% bovine serum albumin solution was orally administered in a dose of 1.0 or 10.0 mg/kg/day at 3 time, namely the day before, just after and the day after the sensitization.
After 4 days from the sensitization, spleen was removed from each mouse and number of PFC in 10^6 spleen cells was measured, as an index of the antibody production in the NZB/WF1 mice.

[2] = test system: Influenza virus (A/PR/S strain); assay: Anti-virus effect, influenza virus infection model of mouse (Pharmacological Experiment 9); assay type: in vivo, mouse (BALB/c male); conditions: for Ratio of survival / Average life: 6 days; for Ratio of survival: 20 days from infection
Experimental: An antiviral effect of the compound according to the invention is investigated with an experimental influenza virus infection model of mouse.
Influenza virus (A/PR/S strain) was inoculated into a trachea of BALB/c male mice at 9.0 PFU/mouse. The organogermanium compound (Example 4) dissolved in 4% bovine serum albumin solution was orally administered at the dose of 0.1, 1.0 and 10.0 mg/kg once a day for 6 days from the day just after the infection to the 5th day therefrom.
A mortality of the mice was observed over 20 days from the virus infection.

Sarcoma 180 tumor cells = assay: Anti-tumor effect, Sarcoma 180 (Pharmacological Experiment 7); assay type: in vivo, mouse (ICR male); conditions: for Inhibition (development of solid tumor) / Tumor weight: 10 days, 20th day; for Tumor weight: mean ± standard error, n = 10
Experimental: An anti-tumor effect of the organogermanium compound according to the invention is examined to Sarcoma 180 tumor cells.
Sarcoma 180 tumor cells were subcutaneously implanted with 2×10^6cells to male ICR mice (n=10) as experimental animals to form a solid tumor. The organogermanium compound (Example 4) dissolved in 4% bovine serum albumin was orally administered at the dose of 0.1, 1.0 and 10.0 mg/kg once a day for 10 days on the day after the implantation.
On the 20th day from the implantation, formed solid tumor was removed and weighed. An antitumor effect represented the inhibitory percent of the compound on the development of solid tumor.

[3] = test system: chronic liver injury induced by carbon tetrachloride (serum transaminases); assay: Action to chronic liver injury induced by carbon tetrachloride (Pharmacological Experiment 11); assay type: in vivo, rat (Wister male); conditions: for s-GOT / s-GPT: 10 weeks every other day, mean ± standard error, n = 10
Experimental: An action of the organogermanium compound of the invention to a chronic liver injury to be induced by carbon tetrachloride, as an experimental model for liver injury is checked, through measurement of serum transaminases, as indexes.
To Wister male rats (n=10 for each group), carbon tetrachloride was intraperitoneally administered at the dose of 480 mg/kg at 2 times by each week for 10 weeks to induce a chronic liver injury.
To the […] in each Test group, the compound according to the invention (Example 4) dissolved in 4% bovine serum albumin solution was orally administered at the dose of 0.1, 1.0 and 10.0 mg/kg/day over 10 weeks in every other day.
After having lapsed 2 days from the final administration of carbon tetrachloride, a blood letting was carried out to measure GOT and GPT values in serum.

[4] = 0.1 mg/kg (as printed in Table 8) orally
[5] = 1.0 mg/kg/day orally, (*) p < 0.05 vs Control

Question: Which results are given for “Sodium 2-oxygermylethanesulfonate polymer [Example 4]”?
Answer: Food pad swelling (normal mice; 0.1 mg/kg orally, (**) p < 0.01 vs Control): 70.9 ± 9.1 x 0.01 mm; Food pad swelling (normal mice; 1.0 mg/kg orally, (***) p < 0.001 vs Control): 59.0 ± 6.6 x 0.01 mm; Food pad swelling (normal mice; 10.0 mg/kg orally, (*) p < 0.05 vs Control): 86.9 ± 10.2 x 0.01 mm; DTH response of normal mice (result in words) (normal mice; 0.1, 1.0 and 10.0 mg/kg orally): significantly reduced the DTH response of normal mice; Inhibition (pocks) [1, 4]: 41.0%; Number of pocks [1, 4]: 23 ± 2; Inhibition (pocks) ([1]; 10.0 mg/kg orally): 43.5%; Number of pocks ([1]; 10.0 mg/kg orally): 22 ± 4; Host defense against Vaccinia virus (result in words) ([1]; orally): has host defense function against Vaccinia virus infected mice; Foot pad swelling (tumor bearing mice; 0.1 mg/kg orally): 66.8 ± 7.5 ×0.01 mm; Foot pad swelling (tumor bearing mice; 1.0 mg/kg orally, (***) p < 0.001 vs tumor bearing): 85.0 ± 5.9 ×0.01 mm; Foot pad swelling (tumor bearing mice; 10.0 mg/kg orally, (***) p < 0.001 vs tumor bearing): 74.3 ± 4.9 ×0.01 mm; DTH response of tumor bearing mice (result in words) (tumor bearing mice; 0.1, 1.0 and 10.0 mg/kg orally): significantly restored the reduced DTH response to normal level; Number of PFC (NZB/WF1 mice; 1.0 mg/kg/day orally): 3511 ± 302 PFC in 10^6 spleen cells; Number of PFC (NZB/WF1 mice; 10.0 mg/kg/day orally): 3800 ± 360 PFC in 10^6 spleen cells; Number of PFC (result in words) (NZB/WF1 mice; treatment groups, 1.0 or 10.0 mg/kg/day orally): the number of PFC was significantly reduced; Ratio of survival ([2]; 0.1 mg/kg orally once a day): 0/10; Average life ([2]; 0.1 mg/kg orally once a day, (*) p < 0.05 vs Control): 10.0 days; Ratio of survival ([2]; 1.0 mg/kg orally once a day): 4/10; Average life ([2]; 1.0 mg/kg orally once a day, (***) p < 0.001 vs Control): 15.2 days; Mice alive at end of test period ([2]; 1.0 mg/kg orally, 20 days from the infection): 4 mice; Ratio of survival ([2]; 10.0 mg/kg orally once a day): 3/10; Average life ([2]; 10.0 mg/kg orally once a day, (**) p < 0.01 vs Control): 13.7 days; Average life vs Control group (result in words) ([2]; each of Testing groups, 0.1, 1.0 and 10.0 mg/kg orally): a significant difference has been recognized; Inhibition (development of solid tumor) (Sarcoma 180 tumor cells; 0.1 mg/kg orally once a day): 28%; Tumor weight (Sarcoma 180 tumor cells; 0.1 mg/kg orally once a day): 1.87 ± 0.46 g; Inhibition (development of solid tumor) (Sarcoma 180 tumor cells; 1.0 mg/kg orally once a day): 69%; Tumor weight (Sarcoma 180 tumor cells; 1.0 mg/kg orally once a day, (*) p < 0.05 vs Control): 0.82 ± 0.22 g; Inhibition (development of solid tumor) (Sarcoma 180 tumor cells; 10.0 mg/kg orally once a day): 38%; Tumor weight (Sarcoma 180 tumor cells; 10.0 mg/kg orally once a day): 1.61 ± 0.29 g; Growth of Sarcoma 180 solid tumor (result in words) (Sarcoma 180 tumor cells; 0.1, 1.0 and 10.0 mg/kg orally): reduced the growth of Sarcoma 180 solid tumor cells; s-GOT ([3]; 0.1 mg/kg/day orally): 1200 ± 180; s-GPT ([3]; 0.1 mg/kg/day orally): 1005 ± 97 Karmen Unit; s-GOT [3, 5]: 1054 ± 140; s-GPT [3, 5]: 940 ± 83 Karmen Unit; s-GPT ([3]; 10.0 mg/kg/day orally): 1086 ± 112 Karmen Unit; s-GOT ([3]; 10.0 mg/kg/day orally, (*) p < 0.05 vs Control): 1020 ± 164; GOT and GPT values (result in words) ([3]; by the dose of 1.0 mg/kg orally): noticeably decreasing GOT and GPT values
